Calls of active or inactive are those of the source. The rule behind the calls is not given here.
What was measured:
[1] = Cytotoxicity against human KBV cells assessed as cell survival at 5 uM after 72 hrs by MTT assay relative to control; format: cell-based; settings: read-out: Survival
[2] = target: T1, ATP-dependent translocase ABCB1 (Homo sapiens, UniProt P08183); experiment: Reversal of P-gp-mediated multidrug resistance in human KBV cells assessed as potentiation of paclitaxel-induced cytotoxicity by measuring cell survival at 5 uM after 72 hrs by MTT assay (reference value: 100.58 +/- 7.78%); format: cell-based
[3] = target: T1, ATP-dependent translocase ABCB1; experiment: Reversal of P-gp-mediated multidrug resistance in human KBV cells assessed as potentiation of paclitaxel-induced apoptosis after 24 hrs by RNase/propidium iodide staining based flow cytometry; format: cell-based
[4] = target: T1, ATP-dependent translocase ABCB1; experiment: Reversal of P-gp-mediated multidrug resistance in human KBV cells assessed as potentiation of paclitaxel-induced cell cycle arrest by measuring accumulation at G2/M phase at 5 to 10 uM after 24 hrs by RNase/propidium iodide staining based flow cytometry
[5] = target: T1, ATP-dependent translocase ABCB1; experiment: Inhibition of P-gp-mediated Flutax1 efflux in human KBV cells assessed as Flutax1 accumulation at 2 to 10 uM preincubated for 3 hrs followed by Flutax1 addition measured after 1 hr by flow cytometry; format: cell-based
[6] = organism: Homo sapiens; experiment: Downregulation of P-gp protein expression in human KBV cells at 5 to 10 uM after 24 hrs by western blot analysis; format: functional, cell-based
[7] = target: T1, ATP-dependent translocase ABCB1; experiment: Inhibition of P-gp-mediated Rh-123 efflux in human KBV cells assessed as Rh-123 accumulation at 10 uM preincubated for 2 hrs followed by Rh-123 addition measured after 30 mins by flow cytometry; format: cell-based; settings: 0.5 h
[8] = target: T1, ATP-dependent translocase ABCB1; experiment: Stimulation of P-gp ATPase activity (unknown origin) assessed as increase in ATP consumption at 0.5 to 1 mM preincubated for 5 mins followed by Mg-ATP addition by P-gp-Glo luminescence assay

T1 sequence (P08183 whole entry): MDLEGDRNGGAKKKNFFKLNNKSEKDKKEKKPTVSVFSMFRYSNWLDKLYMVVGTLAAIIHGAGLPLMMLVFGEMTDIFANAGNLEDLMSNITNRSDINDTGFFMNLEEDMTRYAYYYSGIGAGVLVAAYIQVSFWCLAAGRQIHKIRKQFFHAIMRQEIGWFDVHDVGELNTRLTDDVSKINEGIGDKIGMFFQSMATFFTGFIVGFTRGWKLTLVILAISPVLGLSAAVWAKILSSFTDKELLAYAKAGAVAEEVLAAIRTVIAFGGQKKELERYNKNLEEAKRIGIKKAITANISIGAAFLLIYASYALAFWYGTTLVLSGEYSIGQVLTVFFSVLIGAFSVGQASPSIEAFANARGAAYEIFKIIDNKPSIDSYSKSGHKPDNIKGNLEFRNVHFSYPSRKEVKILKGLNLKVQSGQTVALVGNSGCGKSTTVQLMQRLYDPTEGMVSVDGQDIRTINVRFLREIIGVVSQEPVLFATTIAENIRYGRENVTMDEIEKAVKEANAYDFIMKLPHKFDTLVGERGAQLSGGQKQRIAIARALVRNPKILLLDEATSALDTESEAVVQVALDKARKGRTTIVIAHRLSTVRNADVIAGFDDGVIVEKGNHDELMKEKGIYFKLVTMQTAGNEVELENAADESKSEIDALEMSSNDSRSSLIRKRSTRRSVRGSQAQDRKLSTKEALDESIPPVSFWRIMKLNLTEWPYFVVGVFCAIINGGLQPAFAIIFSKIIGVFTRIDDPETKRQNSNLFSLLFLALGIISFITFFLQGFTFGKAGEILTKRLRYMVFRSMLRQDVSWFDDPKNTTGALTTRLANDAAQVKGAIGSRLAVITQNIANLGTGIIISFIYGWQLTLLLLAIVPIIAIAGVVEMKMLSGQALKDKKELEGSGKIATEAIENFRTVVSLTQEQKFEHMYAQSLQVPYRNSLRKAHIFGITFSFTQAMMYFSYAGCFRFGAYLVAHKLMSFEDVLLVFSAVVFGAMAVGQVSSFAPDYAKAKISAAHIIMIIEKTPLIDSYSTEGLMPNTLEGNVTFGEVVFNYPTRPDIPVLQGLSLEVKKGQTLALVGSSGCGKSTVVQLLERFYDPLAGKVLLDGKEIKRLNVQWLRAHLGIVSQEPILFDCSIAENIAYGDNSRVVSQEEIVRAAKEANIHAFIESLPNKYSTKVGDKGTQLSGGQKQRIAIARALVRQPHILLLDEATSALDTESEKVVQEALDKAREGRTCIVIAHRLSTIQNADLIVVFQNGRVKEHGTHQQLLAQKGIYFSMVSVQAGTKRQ

| Compound | viability at 72 h, 5 µM [1] | Survival [2] | other results |
| --- | --- | --- | --- |
| CCN1CCN(C(=O)CCC(=O)O[C@@H]2CC[C@@]3(C)[C@@H](CC[C@@]4(C)[C@H]3[C@H](O)C[C@H]3/C(=C(\CCC=C(C)C)C(=O)OCc5ccccc5)[C@@H](OC(C)=O)C[C@@]34C)[C@@H]2C)CC1 | 99.8% | 34.43% |  |
| CC(=O)O[C@H]1C[C@@]2(C)[C@@H](C[C@@H](O)[C@H]3[C@@]4(C)CC[C@@H](OC(=O)CCC(=O)N5CCCCC5)[C@@H](C)[C@@H]4CC[C@@]32C)/C1=C(\CCC=C(C)C)C(=O)OCc1ccccc1 | 122% | 35.31% |  |
| CCN1CCN(C(=O)c2ccccc2C(=O)O[C@@H]2CC[C@@]3(C)[C@@H](CC[C@@]4(C)[C@H]3[C@H](O)C[C@H]3/C(=C(\CCC=C(C)C)C(=O)OCc5ccccc5)[C@@H](OC(C)=O)C[C@@]34C)[C@@H]2C)CC1 | 27.3% | 20.76% |  |
| CC(=O)O[C@H]1C[C@@]2(C)[C@@H](C[C@@H](O)[C@H]3[C@@]4(C)CC[C@@H](OC(=O)CCCCO[N+](=O)[O-])[C@@H](C)[C@@H]4CC[C@@]32C)/C1=C(\CCC=C(C)C)C(=O)OCc1ccccc1 | 107% | 96.92% |  |
| CC(=O)O[C@H]1C[C@@]2(C)[C@@H](C[C@@H](O)[C@H]3[C@@]4(C)CC[C@@H](OC(=O)c5ccccc5C(=O)N5CCOCC5)[C@@H](C)[C@@H]4CC[C@@]32C)/C1=C(\CCC=C(C)C)C(=O)OCc1ccccc1 | 76% | 37.96% |  |
| CC(=O)O[C@H]1C[C@@]2(C)[C@@H](C[C@@H](O)[C@H]3[C@@]4(C)CC[C@@H](OC(=O)CCC(=O)N5CCN(C)CC5)[C@@H](C)[C@@H]4CC[C@@]32C)/C1=C(\CCC=C(C)C)C(=O)OCc1ccccc1 | 30.1% | 33.67% |  |
| CC(=O)O[C@H]1C[C@@]2(C)[C@@H](C[C@@H](O)[C@H]3[C@@]4(C)CC[C@@H](OC(=O)CCC(=O)Nc5ccc(N)cc5)[C@@H](C)[C@@H]4CC[C@@]32C)/C1=C(\CCC=C(C)C)C(=O)OCc1ccccc1 | 136% | 22.26% |  |
| CC(=O)O[C@H]1C[C@@]2(C)[C@@H](CC(=O)[C@H]3[C@@]4(C)CC[C@@H](OC(=O)CCCCCO[N+](=O)[O-])[C@@H](C)[C@@H]4CC[C@@]32C)/C1=C(\CCC=C(C)C)C(=O)OCc1ccccc1 | 115% | 62.17% |  |
| CC(=O)O[C@H]1C[C@@]2(C)[C@@H](C[C@@H](O)[C@H]3[C@@]4(C)CC[C@@H](OC(=O)CCC(=O)OCCc5ccc(OCCO[N+](=O)[O-])cc5)[C@@H](C)[C@@H]4CC[C@@]32C)/C1=C(\CCC=C(C)C)C(=O)OCc1ccccc1 | 110% | 101.31% |  |
| CC(=O)O[C@H]1C[C@@]2(C)[C@@H](C[C@@H](O)[C@H]3[C@@]4(C)CC[C@@H](O)[C@@H](C)[C@@H]4CC[C@@]32C)/C1=C(\CCC=C(C)C)C(=O)OCc1ccccc1 | 92% | 18.6% | Activity [3]: Active; Activity [4]: Active; inhibition (INH) [5]: Active; Activity [6]: inactive; inhibition (INH) [7]: Active; Activity [8]: Active |
| CC(=O)O[C@H]1C[C@@]2(C)[C@@H](C[C@@H](O)[C@H]3[C@@]4(C)CC[C@@H](OC(=O)c5ccccc5C(=O)Nc5cccc(N)c5)[C@@H](C)[C@@H]4CC[C@@]32C)/C1=C(\CCC=C(C)C)C(=O)OCc1ccccc1 | 95.8% | 29.28% |  |
| CC(=O)O[C@H]1C[C@@]2(C)[C@@H](C[C@@H](O)[C@H]3[C@@]4(C)CC[C@@H](OC(=O)CCC(=O)N5CCOCC5)[C@@H](C)[C@@H]4CC[C@@]32C)/C1=C(\CCC=C(C)C)C(=O)OCc1ccccc1 | 20.5% | 31.93% |  |
| CC(=O)O[C@H]1C[C@@]2(C)[C@@H](C[C@@H](O)[C@H]3[C@@]4(C)CC[C@@H](O)[C@@H](C)[C@@H]4CC[C@@]32C)/C1=C(\CCC=C(C)C)C(=O)O [FUSIDIC ACID] | 84.7% | 87.77% |  |
| CC(=O)O[C@H]1C[C@@]2(C)[C@@H](C[C@@H](O)[C@H]3[C@@]4(C)CC[C@@H](OC(=O)CCC(=O)Nc5cccc(N)c5)[C@@H](C)[C@@H]4CC[C@@]32C)/C1=C(\CCC=C(C)C)C(=O)OCc1ccccc1 | 135% | 24.8% |  |
| CC(=O)O[C@H]1C[C@@]2(C)[C@@H](C[C@@H](O)[C@H]3[C@@]4(C)CC[C@@H](O)[C@@H](C)[C@@H]4CC[C@@]32C)/C1=C(\CCC=C(C)C)C(=O)Oc1ccc(CCO[N+](=O)[O-])cc1 | 83.7% | 45.82% |  |
| CC(=O)O[C@H]1C[C@@]2(C)[C@@H](C[C@@H](O)[C@H]3[C@@]4(C)CC[C@@H](OC(=O)c5ccccc5C(=O)OCCc5ccc(OCCO[N+](=O)[O-])cc5)[C@@H](C)[C@@H]4CC[C@@]32C)/C1=C(\CCC=C(C)C)C(=O)OCc1ccccc1 | 85.9% | 90.45% |  |
| CC(=O)O[C@H]1C[C@@]2(C)[C@@H](CC(=O)[C@H]3[C@@]4(C)CC[C@@H](OC(=O)CCCCO[N+](=O)[O-])[C@@H](C)[C@@H]4CC[C@@]32C)/C1=C(\CCC=C(C)C)C(=O)OCc1ccccc1 | 112% | 20.75% |  |
| COc1ccc(CCN(C)CCCC(C#N)(c2ccc(OC)c(OC)c2)C(C)C)cc1OC (stereo not given) [VERAPAMIL] |  | 23.05% |  |
| CC(=O)O[C@H]1C[C@@]2(C)[C@@H](C[C@@H](O)[C@H]3[C@@]4(C)CC[C@@H](OC(=O)c5ccccc5C(=O)Oc5ccc(CCO[N+](=O)[O-])cc5)[C@@H](C)[C@@H]4CC[C@@]32C)/C1=C(\CCC=C(C)C)C(=O)OCc1ccccc1 | 87.5% | 75.04% |  |
| CC(=O)O[C@H]1C[C@@]2(C)[C@@H](C[C@@H](O)[C@H]3[C@@]4(C)CC[C@@H](OC(=O)CCCCCO[N+](=O)[O-])[C@@H](C)[C@@H]4CC[C@@]32C)/C1=C(\CCC=C(C)C)C(=O)OCc1ccccc1 | 94.1% | 20.79% |  |
| CC(=O)O[C@H]1C[C@@]2(C)[C@@H](C[C@@H](O)[C@H]3[C@@]4(C)CC[C@@H](OC(=O)c5ccccc5C(=O)Nc5ccc(N)cc5)[C@@H](C)[C@@H]4CC[C@@]32C)/C1=C(\CCC=C(C)C)C(=O)OCc1ccccc1 | 118% | 23.58% |  |
| CC(=O)O[C@H]1C[C@@]2(C)[C@@H](CC(=O)[C@H]3[C@@]4(C)CCC(=O)[C@@H](C)[C@@H]4CC[C@@]32C)/C1=C(\CCC=C(C)C)C(=O)OCc1ccccc1 | 96.6% | 27.6% |  |
| CC(=O)O[C@H]1C[C@@]2(C)[C@@H](C[C@@H](O)[C@H]3[C@@]4(C)CC[C@@H](OC(=O)c5ccccc5C(=O)N5CCN(C)CC5)[C@@H](C)[C@@H]4CC[C@@]32C)/C1=C(\CCC=C(C)C)C(=O)OCc1ccccc1 | 100% | 69.5% |  |
| CC(=O)O[C@H]1C[C@@]2(C)[C@@H](C[C@@H](O)[C@H]3[C@@]4(C)CC[C@@H](OC(=O)c5ccccc5C(=O)N5CCCCC5)[C@@H](C)[C@@H]4CC[C@@]32C)/C1=C(\CCC=C(C)C)C(=O)OCc1ccccc1 | 110% | 36.37% |  |
| CC(=O)O[C@H]1C[C@@]2(C)[C@@H](C[C@@H](O)[C@H]3[C@@]4(C)CC[C@@H](OC(=O)CCC(=O)Oc5ccc(CCO[N+](=O)[O-])cc5)[C@@H](C)[C@@H]4CC[C@@]32C)/C1=C(\CCC=C(C)C)C(=O)OCc1ccccc1 | 114% | 99.95% |  |
